Laboratory results published in article PMC5218480 (PLoS ONE, 2017).

Test system: MV-4-11 cells
Experiment: Gene expression microarray analysis (Affymetrix PrimeView) and GSEA
Format: cell-based, human
Set-up: RFU PODN (11730768_x_at) / Fold change /veh PODN (11730768_x_at) / RFU LINC00158 (11744669_a_at) / Fold change /veh LINC00158 (11744669_a_at) / RFU DUSP10 (11751237_a_at) / Fold change /veh DUSP10 (11751237_a_at) / RFU ID3 (11757404_x_at) / Fold change /veh ID3 (11757404_x_at) / RFU PLEKHG5 (11737974_s_at) / Fold change /veh PLEKHG5 (11737974_s_at) / RFU LRRC4B (11730491_at) / Fold change /veh LRRC4B (11730491_at) / RFU GIMAP4 (11747438_a_at) / Fold change /veh GIMAP4 (11747438_a_at) / RFU KRT8 (11758183_x_at) / Fold change /veh KRT8 (11758183_x_at) / RFU CNN1 (11734310_a_at) / Fold change /veh CNN1 (11734310_a_at) / RFU VPS37D (11726825_at) / Fold change /veh VPS37D (11726825_at) / RFU C10orf10 (11716522_x_at) / Fold change /veh C10orf10 (11716522_x_at) / RFU KIR2DL2 /// KIR2DL4 /// KIR2DL5A /// KIR2DL5B /// KIR2DS1 /// KIR2DS2 /// KIR2DS3 /// KIR2DS4 /// KIR3DL3 /// KIR3DL3 /// KIR3DS1 (11738374_at) / Fold change /veh KIR2DL2 /// KIR2DL4 /// KIR2DL5A /// KIR2DL5B /// KIR2DS1 /// KIR2DS2 /// KIR2DS3 /// KIR2DS4 /// KIR3DL3 /// KIR3DL3 /// KIR3DS1 (11738374_at) / RFU C1QL1 (11718748_at) / Fold change /veh C1QL1 (11718748_at) / RFU TMPRSS4 (11747572_a_at) / Fold change /veh TMPRSS4 (11747572_a_at) / RFU HAMP (11756126_x_at) / Fold change /veh HAMP (11756126_x_at) / RFU RNFT2 (11725882_a_at) / Fold change /veh RNFT2 (11725882_a_at) / RFU NR4A2 (11747474_a_at) / Fold change /veh NR4A2 (11747474_a_at) / RFU ABCC12 (11746883_a_at) / Fold change /veh ABCC12 (11746883_a_at) / RFU TMEM136 (11760407_x_at) / Fold change /veh TMEM136 (11760407_x_at) / RFU CLDN22 /// WWC2 (11732394_at) / Fold change /veh CLDN22 /// WWC2 (11732394_at) / RFU HLA-DPB1 (11760878_x_at) / Fold change /veh HLA-DPB1 (11760878_x_at) / RFU SPINT1 (11716480_a_at) / Fold change /veh SPINT1 (11716480_a_at) / RFU GAP43 (11754022_s_at) / Fold change /veh GAP43 (11754022_s_at) / RFU A4GNT (11735810_at) / Fold change /veh A4GNT (11735810_at) / RFU PRB3 (11715151_x_at) / Fold change /veh PRB3 (11715151_x_at) / RFU TUBB4B (11761932_at) / Fold change /veh TUBB4B (11761932_at) / RFU CAPN14 (11732068_a_at) / Fold change /veh CAPN14 (11732068_a_at) / RFU TMCC2 (11721928_a_at) / Fold change /veh TMCC2 (11721928_a_at) / RFU IRGQ (11745062_a_at) / Fold change /veh IRGQ (11745062_a_at) / RFU FAM174B (11720279_a_at) / Fold change /veh FAM174B (11720279_a_at) / RFU TMPRSS4 (11748680_a_at) / Fold change /veh TMPRSS4 (11748680_a_at) / RFU FAM212B (11763350_a_at) / Fold change /veh FAM212B (11763350_a_at) / RFU PLEKHG5 (11743358_a_at) / Fold change /veh PLEKHG5 (11743358_a_at) / RFU ZSCAN30 (11745921_a_at) / Fold change /veh ZSCAN30 (11745921_a_at) / RFU CMKLR1 (11741424_a_at) / Fold change /veh CMKLR1 (11741424_a_at) / RFU LOC101060620 /// MAPK8IP1 (11723275_at) / Fold change /veh LOC101060620 /// MAPK8IP1 (11723275_at) / RFU SPTSSB (11747773_x_at) / Fold change /veh SPTSSB (11747773_x_at) / RFU PRSS12 (11739890_at) / Fold change /veh PRSS12 (11739890_at) / RFU BIN1 (11741810_x_at) / Fold change /veh BIN1 (11741810_x_at) / RFU WNT11 (11732464_a_at) / Fold change /veh WNT11 (11732464_a_at) / RFU C10orf10 (11716521_a_at) / Fold change /veh C10orf10 (11716521_a_at) / RFU C5orf56 (11738089_at) / Fold change /veh C5orf56 (11738089_at) / RFU CYB561 (11721691_x_at) / Fold change /veh CYB561 (11721691_x_at) / RFU ANKRD19P (11752326_a_at) / Fold change /veh ANKRD19P (11752326_a_at) / RFU OR2T12 /// OR2T33 /// OR2T8 (11738714_s_at) / Fold change /veh OR2T12 /// OR2T33 /// OR2T8 (11738714_s_at) / RFU VCAN (11748164_a_at) / Fold change /veh VCAN (11748164_a_at) / RFU JSRP1 (11732532_at) / Fold change /veh JSRP1 (11732532_at) / RFU KRTAP10-11 (11738290_x_at) / Fold change /veh KRTAP10-11 (11738290_x_at) / RFU MYO3A (11730013_a_at) / Fold change /veh MYO3A (11730013_a_at) / RFU EBF3 (11725865_a_at) / Fold change /veh EBF3 (11725865_a_at) / RFU CAMK2N1 (11719241_x_at) / Fold change /veh CAMK2N1 (11719241_x_at) / RFU C5orf56 (11738088_a_at) / Fold change /veh C5orf56 (11738088_a_at) / RFU OLFML3 (11715873_a_at) / Fold change /veh OLFML3 (11715873_a_at) / RFU LOC100653217 /// NTM (11731650_a_at) / Fold change /veh LOC100653217 /// NTM (11731650_a_at) / RFU MAPK11 (11762145_a_at) / Fold change /veh MAPK11 (11762145_a_at) / RFU FIZ1 (11724087_x_at) / Fold change /veh FIZ1 (11724087_x_at) / RFU OASL (11726364_x_at) / Fold change /veh OASL (11726364_x_at) / RFU SOX15 (11748057_x_at) / Fold change /veh SOX15 (11748057_x_at) / RFU CD79A (11719716_a_at) / Fold change /veh CD79A (11719716_a_at) / RFU HIST1H1D (11736915_at) / Fold change /veh HIST1H1D (11736915_at) / RFU CASKIN2 (11723855_a_at) / Fold change /veh CASKIN2 (11723855_a_at) / RFU LOC730098 (11760151_x_at) / Fold change /veh LOC730098 (11760151_x_at) / RFU OR4N2 (11742367_at) / Fold change /veh OR4N2 (11742367_at) / RFU PRRT2 (11749266_a_at) / Fold change /veh PRRT2 (11749266_a_at) / RFU SNX32 (11753110_a_at) / Fold change /veh SNX32 (11753110_a_at) / RFU CDHR5 (11726645_a_at) / Fold change /veh CDHR5 (11726645_a_at) / RFU RCAN1 (11760418_a_at) / Fold change /veh RCAN1 (11760418_a_at) / RFU FAM167A (11723789_a_at) / Fold change /veh FAM167A (11723789_a_at) / RFU FAM26E (11764081_at) / Fold change /veh FAM26E (11764081_at) / RFU ISYNA1 (11749810_s_at) / Fold change /veh ISYNA1 (11749810_s_at) / RFU ACY1 (11761880_at) / Fold change /veh ACY1 (11761880_at) / RFU 11764098_at / Fold change /veh 11764098_at / RFU SAMD14 (11745864_x_at) / Fold change /veh SAMD14 (11745864_x_at) / RFU NPB (11741838_a_at) / Fold change /veh NPB (11741838_a_at) / RFU TMPRSS6 (11731388_a_at) / Fold change /veh TMPRSS6 (11731388_a_at) / RFU KRTAP10-2 (11738614_at) / Fold change /veh KRTAP10-2 (11738614_at) / RFU ARHGAP8 /// PRR5-ARHGAP8 (11727945_x_at) / Fold change /veh ARHGAP8 /// PRR5-ARHGAP8 (11727945_x_at) / RFU KRTAP5-7 /// NADSYN1 (11734609_at) / Fold change /veh KRTAP5-7 /// NADSYN1 (11734609_at) / RFU RASL12 (11751679_a_at) / Fold change /veh RASL12 (11751679_a_at) / RFU CDKN2B (11736163_a_at) / Fold change /veh CDKN2B (11736163_a_at) / RFU PRF1 (11729649_at) / Fold change /veh PRF1 (11729649_at) / RFU, ZNF638 /// ZNF638-IT1 / Fold change vs veh, ZNF638 /// ZNF638-IT1 / RFU, PANK3 / Fold change vs veh, PANK3 / RFU, SH3YL1 / Fold change vs veh, SH3YL1 / RFU, ZEB2 / Fold change vs veh, ZEB2 / RFU, NRIP1 / Fold change vs veh, NRIP1 / RFU, PTTG1IP / Fold change vs veh, PTTG1IP / RFU, CAPN2 / Fold change vs veh, CAPN2 / RFU, MED14 / Fold change vs veh, MED14 / RFU, SNORA58 / Fold change vs veh, SNORA58 / RFU, C1orf63 / Fold change vs veh, C1orf63 / RFU, LRRFIP1 / Fold change vs veh, LRRFIP1 / RFU, NDUFAF7 / Fold change vs veh, NDUFAF7 / RFU, SLC12A2 / Fold change vs veh, SLC12A2 / RFU, IBTK / Fold change vs veh, IBTK / RFU, ESF1 / Fold change vs veh, ESF1 / Fold change vs veh, TMEM50B / RFU, TAOK1 / Fold change vs veh, TAOK1 / RFU, ACBD3 / Fold change vs veh, ACBD3 / RFU, TMA16 / Fold change vs veh, TMA16 / RFU, RWDD3 / Fold change vs veh, RWDD3 / RFU, BCAT1 / Fold change vs veh, BCAT1 / RFU, EDEM3 / Fold change vs veh, EDEM3 / RFU, TMEM33 / Fold change vs veh, TMEM33 / RFU, WDR75 / Fold change vs veh, WDR75 / RFU, AHCTF1 / Fold change vs veh, AHCTF1 / RFU, TFRC / Fold change vs veh, TFRC / RFU, ZDHHC17 / Fold change vs veh, ZDHHC17 / RFU, NOM1 / Fold change vs veh, NOM1 / RFU, ARL8B / Fold change vs veh, ARL8B / RFU, ZBTB11 / Fold change vs veh, ZBTB11 / RFU, TAMM41 / Fold change vs veh, TAMM41 / RFU, KIAA1704 /// LOC100996395 / Fold change vs veh, KIAA1704 /// LOC100996395 / RFU, ING1 / Fold change vs veh, ING1 / RFU, TRMT61B / Fold change vs veh, TRMT61B / RFU, FUBP3 / Fold change vs veh, FUBP3 / RFU, TP53 / Fold change vs veh, TP53 / RFU, TNKS2 / Fold change vs veh, TNKS2 / RFU, ZFP14 / Fold change vs veh, ZFP14 / RFU, ACTR2 / Fold change vs veh, ACTR2 / RFU, PPP3R1 / Fold change vs veh, PPP3R1 / RFU, PIK3R1 / Fold change vs veh, PIK3R1 / RFU, HNRNPA1 / Fold change vs veh, HNRNPA1 / RFU, RNF170 / Fold change vs veh, RNF170 / RFU, ZNF28 / Fold change vs veh, ZNF28 / RFU, RNGTT / Fold change vs veh, RNGTT / RFU, OGT / Fold change vs veh, OGT / RFU, BRD1 / Fold change vs veh, BRD1 / RFU, MARS / Fold change vs veh, MARS / RFU, ZNF655 / Fold change vs veh, ZNF655 / RFU, FAHD1 / Fold change vs veh, FAHD1 / RFU, BDP1 / Fold change vs veh, BDP1 / RFU, LRRCC1 / Fold change vs veh, LRRCC1 / RFU, ARID1A / Fold change vs veh, ARID1A / RFU, ZNF146 / Fold change vs veh, ZNF146 / RFU, ZNF330 / Fold change vs veh, ZNF330 / RFU, GPN3 / Fold change vs veh, GPN3 / RFU, C9orf123 / Fold change vs veh, C9orf123 / RFU, N4BP2L2 / Fold change vs veh, N4BP2L2 / RFU, ARFIP1 / Fold change vs veh, ARFIP1 / RFU, FAM179B / Fold change vs veh, FAM179B / RFU, BCL10 / Fold change vs veh, BCL10 / RFU, UHRF1BP1L / Fold change vs veh, UHRF1BP1L / RFU, BET1 / Fold change vs veh, BET1 / RFU, CNOT2 / Fold change vs veh, CNOT2 / RFU, ZNF268 / Fold change vs veh, ZNF268 / Fold change vs veh, ZNF507 / RFU, DGCR2 / Fold change vs veh, DGCR2 / RFU, WDSUB1 / Fold change vs veh, WDSUB1 / Fold change vs veh, HSP90B1 /// MIR3652 / RFU, ADSS / Fold change vs veh, ADSS / RFU, GK / Fold change vs veh, GK / RFU, ZNF148 / Fold change vs veh, ZNF148 / RFU, TAF9 / Fold change vs veh, TAF9 / RFU, SLC1A5 / Fold change vs veh, SLC1A5 / RFU, SLMO2 / Fold change vs veh, SLMO2 / RFU, ABCC4 / Fold change vs veh, ABCC4 / RFU, LOC101060439 /// RAP1B / Fold change vs veh, LOC101060439 /// RAP1B / RFU, RFX7 / Fold change vs veh, RFX7 / RFU, GTPBP10 / Fold change vs veh, GTPBP10 / RFU, CNEP1R1 / Fold change vs veh, CNEP1R1 / RFU, BIVM-ERCC5 /// ERCC5 / Fold change vs veh, BIVM-ERCC5 /// ERCC5 / RFU, ILF3 / Fold change vs veh, ILF3 / RFU 11762660_at / Fold change /veh 11762660_at / RFU VCAN (11757783_s_at) / Fold change /veh VCAN (11757783_s_at) / RFU DDX43 (11728927_at) / Fold change /veh DDX43 (11728927_at) / RFU KRT8 (11758188_x_at) / Fold change /veh KRT8 (11758188_x_at) / RFU NKD1 (11759106_at) / Fold change /veh NKD1 (11759106_at) / RFU SRD5A1 (11742802_a_at) / Fold change /veh SRD5A1 (11742802_a_at) / RFU TPSAB1 /// TPSB2 (11721975_s_at) / Fold change /veh TPSAB1 /// TPSB2 (11721975_s_at) / RFU GSTM3 (11746129_a_at) / Fold change /veh GSTM3 (11746129_a_at) / RFU IL23R (11737362_x_at) / Fold change /veh IL23R (11737362_x_at) / RFU TMEM51 (11727254_a_at) / Fold change /veh TMEM51 (11727254_a_at) / RFU PIWIL2 (11732686_x_at) / Fold change /veh PIWIL2 (11732686_x_at) / RFU ORM1 (11744905_x_at) / Fold change /veh ORM1 (11744905_x_at) / RFU CCDC152 (11743942_at) / Fold change /veh CCDC152 (11743942_at) / RFU ECM1 (11717891_a_at) / Fold change /veh ECM1 (11717891_a_at) / RFU IL23R (11748794_a_at) / Fold change /veh IL23R (11748794_a_at) / RFU TNFAIP8L3 (11732012_x_at) / Fold change /veh TNFAIP8L3 (11732012_x_at) / RFU MBOAT4 (11741988_at) / Fold change /veh MBOAT4 (11741988_at) / RFU 11764193_at / Fold change /veh 11764193_at / RFU TMEM53 (11763286_at) / Fold change /veh TMEM53 (11763286_at) / RFU MAGEB2 (11727129_at) / Fold change /veh MAGEB2 (11727129_at) / RFU TMEM200A (11744735_a_at) / Fold change /veh TMEM200A (11744735_a_at) / RFU CCDC152 (11751479_a_at) / Fold change /veh CCDC152 (11751479_a_at) / RFU FAM211A (11726209_a_at) / Fold change /veh FAM211A (11726209_a_at) / RFU RGS16 (11746705_a_at) / Fold change /veh RGS16 (11746705_a_at) / RFU VCAN (11755009_s_at) / Fold change /veh VCAN (11755009_s_at) / RFU RHOB (11743442_s_at) / Fold change /veh RHOB (11743442_s_at) / RFU RGS16 (11720943_a_at) / Fold change /veh RGS16 (11720943_a_at) / RFU RGS16 (11720944_at) / Fold change /veh RGS16 (11720944_at) / RFU, VPS4B / Fold change vs veh, VPS4B / RFU, CREB1 / Fold change vs veh, CREB1 / RFU, DNAJC13 / Fold change vs veh, DNAJC13 / RFU, GNAQ / Fold change vs veh, GNAQ / RFU, CDK5R1 / Fold change vs veh, CDK5R1 / RFU, ZRANB3 / Fold change vs veh, ZRANB3 / RFU, CUL4A / Fold change vs veh, CUL4A / RFU, CCNY / Fold change vs veh, CCNY / RFU, UFL1 / Fold change vs veh, UFL1 / RFU, COG3 / Fold change vs veh, COG3 / RFU, DIAPH2 / Fold change vs veh, DIAPH2 / RFU, SKA2 / Fold change vs veh, SKA2 / RFU, AFF3 / Fold change vs veh, AFF3 / RFU, LMF1 / Fold change vs veh, LMF1 / RFU, IPO11 / Fold change vs veh, IPO11 / RFU, DFFB / Fold change vs veh, DFFB / RFU, FOXP1 / Fold change vs veh, FOXP1 / RFU, CARD8 / Fold change vs veh, CARD8 / RFU, STRN3 / Fold change vs veh, STRN3 / RFU, ADK / Fold change vs veh, ADK / RFU, RASSF2 / Fold change vs veh, RASSF2 / RFU, WIPF1 / Fold change vs veh, WIPF1 / RFU, LARP1B / Fold change vs veh, LARP1B / RFU, RASA1 / Fold change vs veh, RASA1 / RFU, RB1 / Fold change vs veh, RB1 / RFU, PPFIA1 / Fold change vs veh, PPFIA1 / RFU, MAT2A / Fold change vs veh, MAT2A / RFU, CCT5 / Fold change vs veh, CCT5 / RFU, WDR92 / Fold change vs veh, WDR92 / RFU, CUX1 / Fold change vs veh, CUX1 / RFU, TTC7A / Fold change vs veh, TTC7A / RFU, TMEM135 / Fold change vs veh, TMEM135 / RFU, DEPTOR / Fold change vs veh, DEPTOR / RFU, CPM / Fold change vs veh, CPM / RFU, DNAJB6 / Fold change vs veh, DNAJB6 / RFU, CACNA2D3 / Fold change vs veh, CACNA2D3 / RFU, DTX4 / Fold change vs veh, DTX4 / RFU, TFCP2 / Fold change vs veh, TFCP2 / RFU, GMCL1 /// GMCL1P1 / Fold change vs veh, GMCL1 /// GMCL1P1 / RFU, AEBP2 / Fold change vs veh, AEBP2 / RFU, SNHG1 /// SNORD22 /// SNORD25 /// SNORD26 /// SNORD27 /// SNORD28 /// SNORD29 /// SNORD31 / Fold change vs veh, SNHG1 /// SNORD22 /// SNORD25 /// SNORD26 /// SNORD27 /// SNORD28 /// SNORD29 /// SNORD31 / Fold change (Aza/veh), C12orf56 (ProbeSet 11735607_a_at) / Fold change (ACY-1035/veh), C12orf56 (ProbeSet 11735607_a_at) / Fold change (Aza/veh), FGFR1OP (ProbeSet 11751329_s_at) / Fold change (ACY-1035/veh), FGFR1OP (ProbeSet 11751329_s_at) / Fold change (Aza/veh), VPS36 (ProbeSet 11739960_a_at) / Fold change (ACY-1035/veh), VPS36 (ProbeSet 11739960_a_at) / RFU SYPL1 (11715823_x_at) / Fold change /veh SYPL1 (11715823_x_at) / RFU IGFBP7 (11715501_s_at) / Fold change /veh IGFBP7 (11715501_s_at) / RFU REEP3 (11722064_at) / Fold change /veh REEP3 (11722064_at) / RFU IGLL1 (11728026_x_at) / Fold change /veh IGLL1 (11728026_x_at): dose or concentration left out as unconfirmed
Conditions: ProbeSet 11745260_x_at; LIST B

## Nc1ccc(-c2cccs2)cc1NC(=O)c1ccc2c(c1)cc(C1CC1)n2CCN1CCOCC1 [ACY-1035]
  Fold change vs veh, SLC12A2: 0.87
